Results from ChEMBL document CHEMBL1137358, “Synthetic inhibitors of cytochrome P-450 2A6: inhibitory activity, difference spectra, mechanism of inhibition, and protein cocrystallization” (J Med Chem, 2006).

How the values were obtained:
Cytochrome P450 2E1 = Cytochrome P450 2E1 (Homo sapiens, UniProt P05181); assay: Inhibition of human CYP2E1
Cytochrome P450 2C9 = Cytochrome P450 2C9 (Homo sapiens, UniProt P11712); assay: Inhibition of human CYP2C9
[1] = (§1) Stability in mouse liver microsome
[2] = Stability in human liver microsome
Cytochrome P450 2A6 = molecular target: T1, Cytochrome P450 2A6 (Homo sapiens, UniProt P11509); assay: Inhibition of human CYP2A6
T1 sequence (P11509 whole entry): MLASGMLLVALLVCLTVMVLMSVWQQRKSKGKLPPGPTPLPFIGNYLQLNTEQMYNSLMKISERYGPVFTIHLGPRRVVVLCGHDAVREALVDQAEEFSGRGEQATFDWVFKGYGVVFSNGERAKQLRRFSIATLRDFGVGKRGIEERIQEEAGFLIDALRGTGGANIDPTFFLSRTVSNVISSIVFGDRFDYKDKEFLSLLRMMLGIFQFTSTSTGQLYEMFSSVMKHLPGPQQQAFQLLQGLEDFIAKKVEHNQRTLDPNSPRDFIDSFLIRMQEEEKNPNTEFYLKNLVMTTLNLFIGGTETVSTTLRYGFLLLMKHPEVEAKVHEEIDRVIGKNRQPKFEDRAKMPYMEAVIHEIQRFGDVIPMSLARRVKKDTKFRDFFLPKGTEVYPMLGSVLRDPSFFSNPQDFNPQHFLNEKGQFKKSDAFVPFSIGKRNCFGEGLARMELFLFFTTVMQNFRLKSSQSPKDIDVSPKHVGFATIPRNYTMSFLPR

Cytochrome P450 3A4 = Cytochrome P450 3A4 (Homo sapiens, UniProt P08684); assay: Inhibition of human CYP3A4
Cytochrome P450 2C19 = Cytochrome P450 2C19 (Homo sapiens, UniProt P33261); assay: Inhibition of human CYP2C19
Cytochrome P450 2D6 = Cytochrome P450 2D6 (Homo sapiens, UniProt P10635); assay: Inhibition of human CYP2D6
Cytochrome P450 2B6 = molecular target: T2, Cytochrome P450 2B6 (Homo sapiens, UniProt P20813); assay: Inhibition of human CYP2B6
T2 sequence (P20813 whole entry): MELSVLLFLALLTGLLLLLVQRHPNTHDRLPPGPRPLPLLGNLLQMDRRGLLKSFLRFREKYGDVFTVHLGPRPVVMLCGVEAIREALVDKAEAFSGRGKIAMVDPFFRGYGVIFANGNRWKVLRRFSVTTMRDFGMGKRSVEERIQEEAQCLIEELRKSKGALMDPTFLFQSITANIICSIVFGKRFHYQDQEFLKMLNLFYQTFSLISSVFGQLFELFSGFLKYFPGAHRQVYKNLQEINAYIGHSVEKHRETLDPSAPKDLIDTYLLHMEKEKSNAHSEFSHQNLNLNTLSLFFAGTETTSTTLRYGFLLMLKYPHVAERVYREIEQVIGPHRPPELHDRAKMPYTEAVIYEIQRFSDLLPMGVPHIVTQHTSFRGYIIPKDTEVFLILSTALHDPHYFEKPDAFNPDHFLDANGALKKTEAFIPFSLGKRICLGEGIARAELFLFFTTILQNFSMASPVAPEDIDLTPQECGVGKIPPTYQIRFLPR

CYP2A6 over CYP3A4 = assay: Selectivity for CYP2A6 over CYP3A4; details: human
CYP2A6 over CYP2E1 = assay: Selectivity for CYP2A6 over CYP2E1; details: human
CYP2A6 over CYP2B6 = assay: Selectivity for CYP2A6 over CYP2B6
CYP2A6 over CYP2C9 = assay: Selectivity for CYP2A6 over CYP2C9; details: human
CYP2A6 over CYP2C19 = assay: Selectivity for CYP2A6 over CYP2C19; details: human
CYP2A6 over CYP2D6 = assay: Selectivity for CYP2A6 over CYP2D6; details: human
Mus musculus = organism: Mus musculus; assay: as §1; details: microsomes

Sequence of Cytochrome P450 2E1 (P05181 whole entry): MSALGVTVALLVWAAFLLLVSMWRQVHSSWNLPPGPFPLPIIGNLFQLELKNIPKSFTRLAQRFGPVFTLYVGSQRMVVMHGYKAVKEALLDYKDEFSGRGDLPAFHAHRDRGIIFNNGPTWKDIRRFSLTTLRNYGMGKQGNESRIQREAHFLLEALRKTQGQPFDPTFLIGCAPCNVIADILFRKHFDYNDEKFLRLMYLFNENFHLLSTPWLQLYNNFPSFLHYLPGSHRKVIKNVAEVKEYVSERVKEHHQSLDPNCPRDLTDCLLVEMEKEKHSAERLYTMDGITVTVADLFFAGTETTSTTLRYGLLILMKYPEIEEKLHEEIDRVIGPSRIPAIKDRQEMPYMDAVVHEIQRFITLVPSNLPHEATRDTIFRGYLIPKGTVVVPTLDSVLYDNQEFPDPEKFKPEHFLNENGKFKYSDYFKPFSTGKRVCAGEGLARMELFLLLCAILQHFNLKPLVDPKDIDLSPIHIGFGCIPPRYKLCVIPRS
Sequence of Cytochrome P450 3A4 (P08684 whole entry): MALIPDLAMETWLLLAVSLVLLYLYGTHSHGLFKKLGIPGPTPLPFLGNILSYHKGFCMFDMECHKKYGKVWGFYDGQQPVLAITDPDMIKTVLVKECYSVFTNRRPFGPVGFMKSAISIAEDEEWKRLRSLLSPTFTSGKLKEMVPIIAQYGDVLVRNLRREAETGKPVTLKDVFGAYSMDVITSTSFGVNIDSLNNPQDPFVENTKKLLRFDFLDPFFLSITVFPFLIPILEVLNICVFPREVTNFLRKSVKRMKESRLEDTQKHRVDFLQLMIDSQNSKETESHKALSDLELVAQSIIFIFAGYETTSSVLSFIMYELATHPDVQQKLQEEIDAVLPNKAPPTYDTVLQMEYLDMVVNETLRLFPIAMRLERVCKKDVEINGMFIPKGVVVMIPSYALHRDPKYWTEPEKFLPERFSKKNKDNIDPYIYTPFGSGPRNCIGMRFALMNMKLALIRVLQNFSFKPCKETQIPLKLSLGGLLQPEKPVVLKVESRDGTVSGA
Sequence of Cytochrome P450 2D6 (P10635 whole entry): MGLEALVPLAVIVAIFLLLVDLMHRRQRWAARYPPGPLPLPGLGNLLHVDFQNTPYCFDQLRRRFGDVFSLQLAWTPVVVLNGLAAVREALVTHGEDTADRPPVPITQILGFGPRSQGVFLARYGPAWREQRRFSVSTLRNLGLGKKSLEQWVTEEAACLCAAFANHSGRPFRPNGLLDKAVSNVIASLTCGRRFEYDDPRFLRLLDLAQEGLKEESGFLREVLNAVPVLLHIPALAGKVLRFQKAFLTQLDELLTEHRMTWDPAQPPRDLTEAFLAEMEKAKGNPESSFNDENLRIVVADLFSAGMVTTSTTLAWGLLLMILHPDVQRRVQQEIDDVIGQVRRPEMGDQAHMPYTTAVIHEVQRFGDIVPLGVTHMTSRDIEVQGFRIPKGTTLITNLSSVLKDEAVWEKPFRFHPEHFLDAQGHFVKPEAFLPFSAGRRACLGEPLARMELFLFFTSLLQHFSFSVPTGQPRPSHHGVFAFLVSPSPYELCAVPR
Sequence of Cytochrome P450 2C9 (P11712 whole entry): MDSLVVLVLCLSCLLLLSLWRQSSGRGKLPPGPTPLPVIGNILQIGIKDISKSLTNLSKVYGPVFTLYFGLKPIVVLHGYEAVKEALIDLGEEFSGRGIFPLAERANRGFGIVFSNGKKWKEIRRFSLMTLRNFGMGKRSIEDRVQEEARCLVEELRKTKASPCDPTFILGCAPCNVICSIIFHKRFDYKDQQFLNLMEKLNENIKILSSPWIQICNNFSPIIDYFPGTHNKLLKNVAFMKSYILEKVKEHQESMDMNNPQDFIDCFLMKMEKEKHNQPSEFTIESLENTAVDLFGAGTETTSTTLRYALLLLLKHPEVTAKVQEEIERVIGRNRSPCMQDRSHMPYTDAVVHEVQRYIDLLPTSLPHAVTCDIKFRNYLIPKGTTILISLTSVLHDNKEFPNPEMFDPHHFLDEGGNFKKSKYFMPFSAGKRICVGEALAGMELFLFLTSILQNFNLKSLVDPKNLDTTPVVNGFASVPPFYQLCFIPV
Sequence of Cytochrome P450 2C19 (P33261 whole entry): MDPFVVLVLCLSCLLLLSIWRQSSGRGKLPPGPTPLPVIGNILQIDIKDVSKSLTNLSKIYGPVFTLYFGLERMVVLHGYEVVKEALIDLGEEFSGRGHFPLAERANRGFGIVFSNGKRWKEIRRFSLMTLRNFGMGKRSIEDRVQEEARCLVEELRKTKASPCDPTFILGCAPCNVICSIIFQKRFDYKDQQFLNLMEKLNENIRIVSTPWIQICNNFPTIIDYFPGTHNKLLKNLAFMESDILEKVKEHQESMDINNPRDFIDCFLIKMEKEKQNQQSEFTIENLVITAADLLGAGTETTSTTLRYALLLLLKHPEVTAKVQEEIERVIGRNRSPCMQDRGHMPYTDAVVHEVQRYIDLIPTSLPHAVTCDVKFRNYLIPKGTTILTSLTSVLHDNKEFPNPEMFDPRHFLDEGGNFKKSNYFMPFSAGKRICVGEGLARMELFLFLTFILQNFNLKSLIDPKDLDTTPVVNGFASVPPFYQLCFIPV

SMILES	Ki (Cytochrome P450 2E1) [µM]	Ki (Cytochrome P450 2C9) [µM]	half-life ([1]; liver microsomes) [h]	half-life ([2]; liver microsomes) [h]	Ki (Cytochrome P450 2A6) [µM]	Ki (Cytochrome P450 3A4) [µM]	Ki (Cytochrome P450 2C19) [µM]	Ki (Cytochrome P450 2D6) [µM]	Ki (Cytochrome P450 2B6) [µM]	selectivity ratio (CYP2A6 over CYP3A4)	selectivity ratio (CYP2A6 over CYP2E1)	selectivity ratio (CYP2A6 over CYP2B6)	selectivity ratio (CYP2A6 over CYP2C9)	selectivity ratio (CYP2A6 over CYP2C19)	selectivity ratio (CYP2A6 over CYP2D6)	half-life ([1]; microsomes) [h]	half-life ([2]; microsomes) [h]	Stability (Mus musculus)
CNCC#Cc1cccnc1	117	6.3	2.05	2.27	2.7	251	16.4	> 400	60	92.8	43.1	22.2	2.3	6.1	> 74			
NCc1ccc(-c2cccnc2)o1	86	5.9	0.617	0.617		23.6	11	5.7	95.5				43	81	42			
c1cncc(-c2c[nH]cn2)c1	12.8	20.9	11.6	11.7	0.8	70	26.8	100	51.5	93	17	69	28	35	133			
Cc1ccsc1-c1cccnc1			0.683	0.533														
NCc1ccc(-c2ccccc2)o1	0.8	0.9			0.6	63	41	14.8	3.8	105	1.3	6.4	1.5	6.8	24.6	0.367	0.617	
CSCc1ccc(-c2cccnc2)o1	0.8	14.1			0.8	7.4	7	64.5	46.9	9.2	0.9	59	18	8.8	81	0.633	0.983	
NCc1ccc(-c2ccccc2)s1	0.04	0.5			0.6	95.5	0.9	> 400	0.6	159	0.1	1.1	0.8	1.4	> 333	0.683	1.4	
Cc1cscc1-c1ccccc1	> 400	> 400			6.2	> 400	> 400	> 400	5.1	> 400	2.9	4.2	33.9	32.3	60.6	0.617	1.23	
NCc1cc(-c2cccnc2)no1	38.9	14.5	6.42	6.68	0.4	> 400	27.5	> 400	33.7	> 541	105	91.1	39.1	74.3	> 541			
c1cncc(-c2cc[nH]n2)c1	5.2	172	1.55	1.65	12.8	> 400	109	165	71.5	> 15.6	0.4	5.6	13.4	8.5	12.9			
NCc1ccc(-c2cccnc2)s1	20.1					29.4		84.5								1	0.65	
CN(C)Cc1ccc(-c2cccnc2)o1	> 400	111				147	79	127	> 400									Stable
NCc1cc(-c2cccnc2)n[nH]1	> 400	24.2	2.82	3.97	0.3	> 400	41.4	29.8	33.2	> 690	> 690	114	83.4	143	103			
c1ccc(-c2ccsc2)cc1	9.7	112	1.53	5.25	3.3	> 400	107	> 400	14	> 32.3	> 32.3	0.8	> 32.3	> 32.3	> 32.3			
Cc1csc(-c2cccnc2)n1	9.6	51.5			4.1	22.9	> 400	> 400	43.5	5.6	2.3	10.6	12.6	> 32.3	> 32.3	0.817	0.6	
